Measurements as given in the NIST ThermoML archive (doi:10.1007/s10765-006-0033-6).

Experiment: compressibility factor (dimensionless); xn = mol fraction of the nth substance listed
Conditions: Gas, Other PVT measurement

[N-]=[N+]=O [nitrous oxide] + FCF
Conditions | compressibility factor
343.77 K, 195.1 kPa, x1 = 0.4666 | 0.989
343.77 K, 207.5 kPa, x1 = 0.2266 | 0.9867
343.77 K, 226.8 kPa, x1 = 0.7567 | 0.9899
343.77 K, 290.7 kPa, x1 = 0.4666 | 0.985
343.77 K, 308.8 kPa, x1 = 0.2266 | 0.9814
343.77 K, 338.1 kPa, x1 = 0.7567 | 0.9863
343.77 K, 432.2 kPa, x1 = 0.4666 | 0.9788
343.77 K, 458 kPa, x1 = 0.2266 | 0.973
343.77 K, 502.9 kPa, x1 = 0.7567 | 0.9804
343.77 K, 640.2 kPa, x1 = 0.4666 | 0.9692
343.77 K, 676.2 kPa, x1 = 0.2266 | 0.9601
343.77 K, 745.4 kPa, x1 = 0.7567 | 0.9714
343.77 K, 943.3 kPa, x1 = 0.4666 | 0.9546
343.77 K, 991.2 kPa, x1 = 0.2266 | 0.9407
343.77 K, 1099.4 kPa, x1 = 0.7567 | 0.9577
343.77 K, 1379.1 kPa, x1 = 0.4666 | 0.9328
343.77 K, 1438.1 kPa, x1 = 0.2266 | 0.9123
343.77 K, 1609.7 kPa, x1 = 0.7567 | 0.9372
343.77 K, 1992.6 kPa, x1 = 0.4666 | 0.9008
343.77 K, 2053.8 kPa, x1 = 0.2266 | 0.8708
343.77 K, 2331.4 kPa, x1 = 0.7567 | 0.9073
343.77 K, 2828.1 kPa, x1 = 0.4666 | 0.8546
343.77 K, 2865.7 kPa, x1 = 0.2266 | 0.8122
343.77 K, 3321.8 kPa, x1 = 0.7567 | 0.8641
343.77 K, 3911.6 kPa, x1 = 0.4666 | 0.7901
343.77 K, 4620.1 kPa, x1 = 0.7567 | 0.8033
343.78 K, 138.3 kPa, x1 = 0.3594 | 0.9911
343.78 K, 187.9 kPa, x1 = 0.5908 | 0.9906
343.78 K, 206.4 kPa, x1 = 0.3594 | 0.9884
343.78 K, 280.1 kPa, x1 = 0.5908 | 0.9872
343.78 K, 307.3 kPa, x1 = 0.3594 | 0.9836
343.78 K, 416.8 kPa, x1 = 0.5908 | 0.9817
343.78 K, 456.2 kPa, x1 = 0.3594 | 0.9762
343.78 K, 618.2 kPa, x1 = 0.5908 | 0.9733
343.78 K, 674.7 kPa, x1 = 0.3594 | 0.9649
343.78 K, 912.7 kPa, x1 = 0.5908 | 0.9605
343.78 K, 991.4 kPa, x1 = 0.3594 | 0.9477
343.78 K, 1338.5 kPa, x1 = 0.5908 | 0.9415
343.78 K, 1443.8 kPa, x1 = 0.3594 | 0.9225
343.78 K, 1942.8 kPa, x1 = 0.5908 | 0.9134
343.78 K, 2073.7 kPa, x1 = 0.3594 | 0.8857
343.78 K, 2776.8 kPa, x1 = 0.5908 | 0.8726
343.78 K, 2917.9 kPa, x1 = 0.3594 | 0.833
343.78 K, 3879.6 kPa, x1 = 0.5908 | 0.8149
364.35 K, 199.4 kPa, x1 = 0.5606 | 0.9913
364.35 K, 297.5 kPa, x1 = 0.5606 | 0.9887
364.35 K, 443 kPa, x1 = 0.5606 | 0.9839
364.35 K, 657.8 kPa, x1 = 0.5606 | 0.9766
364.35 K, 972.8 kPa, x1 = 0.5606 | 0.9653
364.35 K, 1430 kPa, x1 = 0.5606 | 0.9485
364.35 K, 2083.5 kPa, x1 = 0.5606 | 0.9237
364.35 K, 2996.2 kPa, x1 = 0.5606 | 0.8879
364.35 K, 4225.6 kPa, x1 = 0.5606 | 0.837
364.36 K, 114.2 kPa, x1 = 0.2563 | 0.9933
364.36 K, 134.6 kPa, x1 = 0.33 | 0.9913
364.36 K, 170.5 kPa, x1 = 0.2563 | 0.9913
364.36 K, 197 kPa, x1 = 0.4559 | 0.9909
364.36 K, 200.9 kPa, x1 = 0.33 | 0.9892
364.36 K, 250.5 kPa, x1 = 0.7632 | 0.9908
364.36 K, 254.2 kPa, x1 = 0.2563 | 0.9878
364.36 K, 294 kPa, x1 = 0.4559 | 0.9885
364.36 K, 299.7 kPa, x1 = 0.33 | 0.9864
364.36 K, 373.5 kPa, x1 = 0.7632 | 0.9875
364.36 K, 378.2 kPa, x1 = 0.2563 | 0.9825
364.36 K, 437.3 kPa, x1 = 0.4559 | 0.9828
364.36 K, 445.6 kPa, x1 = 0.33 | 0.9802
364.36 K, 556.1 kPa, x1 = 0.7632 | 0.9827
364.36 K, 561.2 kPa, x1 = 0.2563 | 0.9743
364.36 K, 649 kPa, x1 = 0.4559 | 0.9748
364.36 K, 660.6 kPa, x1 = 0.33 | 0.9712
364.36 K, 824.6 kPa, x1 = 0.7632 | 0.974
364.36 K, 828.8 kPa, x1 = 0.2563 | 0.9619
364.36 K, 959 kPa, x1 = 0.4559 | 0.9628
364.36 K, 974.3 kPa, x1 = 0.33 | 0.9575
364.36 K, 1216 kPa, x1 = 0.2563 | 0.9432
364.36 K, 1218.7 kPa, x1 = 0.7632 | 0.9621
364.36 K, 1408 kPa, x1 = 0.4559 | 0.9448
364.36 K, 1425.9 kPa, x1 = 0.33 | 0.9367
364.36 K, 1766.2 kPa, x1 = 0.2563 | 0.9157
364.36 K, 1788.6 kPa, x1 = 0.7632 | 0.9438
364.36 K, 2047.8 kPa, x1 = 0.4559 | 0.9185
364.36 K, 2064.5 kPa, x1 = 0.33 | 0.9064
364.36 K, 2528.1 kPa, x1 = 0.2563 | 0.8762
364.36 K, 2598.5 kPa, x1 = 0.7632 | 0.9166
364.36 K, 2935.9 kPa, x1 = 0.4559 | 0.8802
364.36 K, 2942.6 kPa, x1 = 0.33 | 0.8636
364.36 K, 3725.1 kPa, x1 = 0.7632 | 0.8782
364.36 K, 4122.8 kPa, x1 = 0.4559 | 0.8262
364.36 K, 5229 kPa, x1 = 0.7632 | 0.824
